Measured values reported in US6060462A, “Electrophilic peptide analogs as inhibitors of trypsin-like enzymes” (DuPont Pharmaceuticals Company, priority 1997, dated 2000).
Where a name gives a salt, the structure may show the parent alone.

Assays:
Format in all cases: biochemical
human thrombin = human thrombin (Homo sapiens, UniProt P00734); test: Inhibition of thrombin hydrolysis of chromogenic substrate S2238 (Ki); set-up: 0.2-0.5 nM human thrombin or human factor Xa; purchased Enzyme Research Laboratories, South Bend, Ind; conditions: purified human thrombin, 0.10 M sodium phosphate buffer, pH 7.5, read-out: Ki values for inhibition of Serine Proteases: Trombin
Experimental: (§1) The effectiveness of compounds of the present invention as inhibitors of blood coagulation proteases was determined using purified human proteases and synthetic substrates following procedures similar to those described in Kettner et al. (1990).
(§2) For these assays, the rate of enzymatic (thrombin, Factor Xa, and Factor VIIa) hydrolysis of chromogenic substrates (S2238 (H-D-Phe-Pip-Arg-pNA), S2222, and S2288, respectively; Kabi Pharmacia, Franklin, Ohio) was measured both in the absence and presence of compounds of the present invention. […] A decrease in the rate of absorbance change at 405 nm in the presence of inhibitor is indicative of enzyme inhibition. The results of this assay are expressed as inhibitory constant, Ki.
(§3) Thrombin and Xa determinations were made in 0.10 M sodium phosphate buffer, pH 7.5, containing 0.20 M NaCl, and 0.5% PEG 8000. VIIa determinations were made in 0.05 M tris buffer, pH 7.6, containing 0.10 M NaCl, 4 mM CaCl2, and 0.1% bovine serum albumin.
(§4) Reactions were allowed to go for 30 minutes and the velocities (rate of absorbance change vs time) were measured in the time frame of 25-30 minutes. The following relationship was used to calculate Ki values. [formula] where: vo is the velocity of the control in the absence of inhibitor;
(§5) vs is the velocity in the presence of inhibitor;
(§6) I is the concentration of inhibitor;
(§7) Ki is the dissociation constant of the enzyme: inhibitor complex;
(§8) S is the concentration of substrate;
(§9) Km is the Michaelis constant.

human factor VIIa = molecular target: T1, human factor VIIa (Homo sapiens, UniProt P08709); test: Inhibition of Factor VIIa hydrolysis of chromogenic substrate S2288 (Ki); conditions: purified human factor VIIa, 0.05 M tris buffer; for Ki values for inhibition of Serine Proteases: Factor VIIa: pH 7.6; for Ki: pH 7.6, read-out: Ki values for inhibition of Serine Proteases: Factor VIIa
T1 construct: 50 nM human factor VIIa (BiosPacific, Emeryville, Calif.); purchased BiosPacific, Emeryville, Calif
T1 sequence (P08709 213-466 limits assumed): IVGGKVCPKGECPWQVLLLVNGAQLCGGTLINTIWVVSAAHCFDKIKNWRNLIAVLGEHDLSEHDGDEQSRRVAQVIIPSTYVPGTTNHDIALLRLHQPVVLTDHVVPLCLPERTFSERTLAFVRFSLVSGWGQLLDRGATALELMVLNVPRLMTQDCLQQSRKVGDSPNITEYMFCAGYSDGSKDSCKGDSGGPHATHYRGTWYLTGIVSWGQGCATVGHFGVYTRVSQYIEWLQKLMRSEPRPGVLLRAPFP
T1 sequence (P08709 61-212 partner limits assumed): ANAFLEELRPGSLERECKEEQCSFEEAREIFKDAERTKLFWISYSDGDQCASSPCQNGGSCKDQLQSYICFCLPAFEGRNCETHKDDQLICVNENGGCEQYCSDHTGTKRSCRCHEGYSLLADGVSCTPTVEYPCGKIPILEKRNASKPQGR
Experimental: as §1, §2, §3, §4, §5, §6, §7, §8, §9

human factor Xa = molecular target: T2, human factor Xa (Homo sapiens, UniProt P00742); test: Inhibition of Factor Xa hydrolysis of chromogenic substrate S2222 (Ki); conditions: purified human factor Xa, 0.10 M sodium phosphate buffer; for Ki: pH 7.5, read-out: Ki values for inhibition of Serine Proteases: Factor Xa
T2 construct: 0.2-0.5 nM human thrombin or human factor Xa; purchased Enzyme Research Laboratories, South Bend, Ind
Experimental: as §1, §2, §3, §4, §5, §6, §7, §8, §9

T2 sequence (P00742 235-488 limits assumed): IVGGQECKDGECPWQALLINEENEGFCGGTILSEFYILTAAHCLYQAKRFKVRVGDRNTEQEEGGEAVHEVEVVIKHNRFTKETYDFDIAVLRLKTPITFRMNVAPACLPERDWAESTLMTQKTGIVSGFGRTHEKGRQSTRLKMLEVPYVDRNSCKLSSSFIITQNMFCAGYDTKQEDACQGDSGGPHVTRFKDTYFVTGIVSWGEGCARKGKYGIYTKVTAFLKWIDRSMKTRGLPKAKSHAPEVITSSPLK
T2 sequence (P00742 41-179 partner limits assumed): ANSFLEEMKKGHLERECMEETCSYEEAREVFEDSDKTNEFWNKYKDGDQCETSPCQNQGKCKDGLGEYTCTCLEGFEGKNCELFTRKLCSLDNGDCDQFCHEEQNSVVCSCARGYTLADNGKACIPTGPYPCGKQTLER

Row | Ki (human thrombin) [nM] | Ki values for inhibition of Serine Proteases: Factor VIIa (human factor VIIa) | Ki (human factor Xa) [µM] | Ki (human factor VIIa) [µM] | Ki values for inhibition of Serine Proteases: Factor Xa (human factor Xa; pH 7.5) | Molecule
1 | < 50000 |  |  |  |  | 2-(2-(Trifluoromethyl)-Benzyl)-Benzoyl-Sar-Lys--C(=O)--NHNH2 2 HCl [Example 71.4.2]
2 | < 50000 | inactive | < 50 |  |  | 2-(Benzyl)-Benzoyl-Sar-Lys--C(=O)--NHNH2 2 HCl [Example 70.4.2]
3 | < 500 | inactive | < 50 |  |  | CC1(C)C2CC3OB(C(CCCN)NC(=O)CN(CCc4ccccc4)C(=O)CCc4ccccc4)OC3(C)C1C2.Cl (stereo not drawn) [Example 49.1.1, Hydrocinnamoyl-[N-(Phenethyl)-Gly]-boroOrn-C10H16HCl]
4 | < 500 |  | < 0.5 | < 50 |  | CC1(C)C2CC3OB(C(CCCCN)NC(=O)CN(CCc4cccc(C(F)(F)F)c4)C(=O)CCc4ccccc4)OC3(C)C1C2 (stereo not drawn) [Example 51.1.1, Hydrocinnamoyl-[N-(3-(Trifluoromethyl)-Phenethyl)-Gly]-boroLys--C10H16 HCl]
5 | < 500 |  |  |  |  | Cc1cccc(CCN(CC(=O)NC(CCCCN)B2OC3CC4CC(C4(C)C)C3(C)O2)C(=O)CCc2ccccc2)c1 (stereo not drawn) [Example 51.1.2, Hydrocinnamoyl-[N-(3-(Methyl)-Phenethyl)-Gly]-boroLys-C10H16 HCl]
6 | < 500 |  | < 0.5 | < 50 |  | NCCCCC(NC(=O)CN(CCc1cccc(C(F)(F)F)c1)C(=O)CCc1ccccc1)B(O)O (stereo not drawn) [Example 52.1.1, Hydrocinnamoyl-[N-(3-(Trifluoromethyl)-Phenethyl)-Gly]-boroLys--OH HCl]
7 | < 500 |  | < 50 | < 0.5 |  | NCCCCC(NC(=O)CN(C(=O)CCc1ccccc1)C1CCCCC1)B(O)O (stereo not drawn) [Example 53.4.3, Hydrocinnamoyl-[N-(Cyclohexyl)-Gly]-boroLys--OH HCl]
8 | < 500 |  |  |  |  | CC(C)(CN(CC(=O)NC(CCCCN)B1OC2CC3CC(C3(C)C)C2(C)O1)C(=O)CCc1ccccc1)c1ccccc1 (stereo not drawn) [Example 54.1.1, Hydrocinnamoyl-[N-(2,2-(Dimethyl)-Phenethyl)-Gly]-boroLys-C10H16 HCl]
9 | < 500 |  | < 50 | < 0.5 |  | CCC(CC)(CN(CC(=O)NC(CCCCN)B1OC2CC3CC(C3(C)C)C2(C)O1)C(=O)CCc1ccccc1)c1ccccc1 (stereo not drawn) [Example 54.1.3, Hydrocinnamoyl-[N-(2,2-(Diethyl)-Phenethyl)-Gly]-boroLys-C10H16 HCl]
10 | < 500 |  | < 50 | < 50 |  | CC1(C)C2CC3OB(C(CCCCN)NC(=O)CN(C(=O)CCC(=O)O)C(=O)CCc4ccccc4)OC3(C)C1C2 (stereo not drawn) [Example 54.2.3, Hydrocinnamoyl-[N-(Succinyl)-Gly]-boroLys-C10H16]
11 | < 500 |  | < 50 | < 50 |  | COC(=O)CCC(=O)N(CC(=O)NC(CCCCN)B1OC2CC3CC(C3(C)C)C2(C)O1)C(=O)CCc1ccccc1 (stereo not drawn) [Example 54.3.1, Hydrocinnamoyl-[N-(Methyl Succinyl)-Gly]-boroLys-C10H16 HCl]
12 | < 500 |  | < 50 | < 0.5 |  | CC1(C)C2CC3OB(C(CCCCN)NC(=O)CN(CCc4ccccc4C4CCCC4)C(=O)CCc4ccccc4)OC3(C)C1C2 (stereo not drawn) [Example 54.3.2, Hydrocinnamoyl-[N-(2-(Cyclopentyl)-Phenethyl)-Gly]-boroLys-C10H16 HCl]
13 |  |  | < 50 | < 0.5 |  | CC(C)(CN(CC(=O)NC(CCCCN)B1OC2CC3CC(C3(C)C)C2(C)O1)C(=O)CCc1ccccc1)c1ccccc1 (stereo not drawn) [Example 54.3.3, Hydrocinnamoyl-[N-(2,2-(Dimethyl)-Phenethyl)-Gly]-boroLys-C10H16 HCl]
14 |  |  | < 50 | < 50 |  | Cc1cc(C)cc(CCN(CC(=O)NC(CCCCN)B2OC3CC4CC(C4(C)C)C3(C)O2)C(=O)CCc2ccccc2)c1 (stereo not drawn) [Example 54.4.1, Hydrocinnamoyl-{N-[2-(3,5-dimethylphenyl)-ethyl]-Gly}-boroLys-C10H16 HCl]
15 | < 500 |  | < 50 |  |  | CC(C)(CN(CC(=O)NC(CCCN)B1OC2CC3CC(C3(C)C)C2(C)O1)C(=O)CCc1ccccc1)c1ccccc1 (stereo not drawn) [Example 60.1.1, Hydrocinnamoyl-[N-(2,2-(Dimethyl)-Phenethyl)-Gly]-boroOrn-C10H16 HCl]
16 | < 500 |  |  |  |  | CC1(C)C2CC3OB(C(CCCN)NC(=O)CN(C(=O)CCc4ccccc4)C4CC4)OC3(C)C1C2 (stereo not drawn) [Example 60.4.2, Hydrocinnamoyl-[N-(Cyclopropyl)-Gly]-boroOrn-C10H16 HCl]
17 | < 500 |  |  | < 50 |  | CC(C)(CC(=O)O)CC(=O)N(CCc1ccccc1)CC(=O)NC(CCCCN)B(O)O (stereo not drawn) [Example 66.1.2, Glutaryl(3,3-Dimethyl)-[N-(Phenethyl)-Gly]-boroLys--OH]
18 | < 500 |  |  | < 50 |  | COC(=O)CC(C)(C)CC(=O)N(CCc1ccccc1)CC(=O)NC(CCCCN)B(O)O (stereo not drawn) [Example 66.1.3, Methyl Glutaryl(3,3-Dimethyl)-[N-(Phenethyl)-Gly]-boroLys--OH HCl]
19 | < 500 |  |  |  |  | CC(c1ccccc1)N(CC(=O)NC(CCCCN)B1OC2CC3CC(C3(C)C)C2(C)O1)C(=O)CNS(C)(=O)=O (stereo not drawn) [Example 67.3.2, Methanesylfonyl-Gly-[N-(N-(Methyl)-Benzyl)-Gly]-boroLys-C10H16 HCl]
20 | < 500 |  |  |  |  | CN(CC(=O)N(CCc1ccccc1)CC(=O)NC(CCCCN)B(O)O)S(C)(=O)=O (stereo not drawn) [Example 68.4.2]
21 | < 500 |  |  | < 0.5 |  | CC(C)(C)OC(=O)NC(CCC(=O)O)C(=O)N(CCc1ccccc1)CC(=O)NC(CCCCN)B1OC2CC3CC(C3(C)C)C2(C)O1 (stereo not drawn) [Example 69.2.1, Boc-Glu-[N-(Phenethyl)-Gly]-boroLys-C10H16]
22 | < 500 |  |  | < 0.5 |  | CC(C)(C)OC(=O)NC(CC(=O)O)C(=O)N(CCc1ccccc1)CC(=O)NC(CCCCN)B1OC2CC3CC(C3(C)C)C2(C)O1 (stereo not drawn) [Example 69.2.2, Boc-Asp-[N-(Phenethyl)-Gly]-boroLys-C10H16]
23 | < 500 |  |  | < 50 |  | COC(=O)CCC(NC(=O)OC(C)(C)C)C(=O)N(CCc1ccccc1)CC(=O)NC(CCCCN)B1OC2CC3CC(C3(C)C)C2(C)O1 (stereo not drawn) [Example 69.2.3, Boc-Glu(OCH3)-[N-(Phenethyl)-Gly]-boroLys--C10H16 HCl]
24 | < 500 |  |  |  |  | CN(CC(=O)N(CCc1ccccc1)CC(=O)NC(CCCCN)B1OC2CC3CC(C3(C)C)C2(C)O1)S(C)(=O)=O (stereo not drawn) [Example 69.4.2, Methanesulfonyl-Sar-[N-(Phenethyl)-Gly]-boroLys-C10H16 HCl]
25 |  |  |  | < 0.5 |  | CN(CC(=O)NC(CCCNC(=N)N)B(O)O)C(=O)c1ccccc1Sc1ccccc1C#N (stereo not drawn) [Example 75.3.1, (2-(2-Cyano)-Thiophenyl)-Benzoyl-Sar-boroArg--OH HCl]
26 |  | Inactive |  |  | Inactive | Hydrocinnamoyl-Sar-Lys--C(=O)--CH3 HCl [Example 61.2.3]
27 | < 500 |  |  |  |  | Hydrocinnamoyl-[N-(Cyclopropyl)-Gly]-boroLys(CH=NH)--OH HCl [Example 76.1.1]
28 | < 500 |  |  |  |  | Hydrocinnamoyl-[N-(Cyclopropyl)-Gly]-boroLys(CH=NH)-C10H16 HCl [Example 77.1.1]
29 | < 50000 |  |  |  |  | Hydrocinnamoyl-[N-(Cyclopropyl)-Gly]-boroOrn(CH=NH)-C10H16 HCl [Example 58.4.2]
30 | < 500 |  |  |  |  | Hydrocinnamoyl-[N-(N(CH3)2)-Gly]-boroLys--C10H16 HCl [Example 50.1.3]
